The values that follow come from patent US10125358B2, “Methods and compounds for increasing threonyl-tRNA synthetase activity” (UNIVERSITY OF VERMONT AND STATE AGRICULTURAL COLLEGE, priority 2012, dated 2018).

Experiment [1] addresses T1, TARS (Homo sapiens, UniProt P26639).
T1 sequence (P26639 1-723): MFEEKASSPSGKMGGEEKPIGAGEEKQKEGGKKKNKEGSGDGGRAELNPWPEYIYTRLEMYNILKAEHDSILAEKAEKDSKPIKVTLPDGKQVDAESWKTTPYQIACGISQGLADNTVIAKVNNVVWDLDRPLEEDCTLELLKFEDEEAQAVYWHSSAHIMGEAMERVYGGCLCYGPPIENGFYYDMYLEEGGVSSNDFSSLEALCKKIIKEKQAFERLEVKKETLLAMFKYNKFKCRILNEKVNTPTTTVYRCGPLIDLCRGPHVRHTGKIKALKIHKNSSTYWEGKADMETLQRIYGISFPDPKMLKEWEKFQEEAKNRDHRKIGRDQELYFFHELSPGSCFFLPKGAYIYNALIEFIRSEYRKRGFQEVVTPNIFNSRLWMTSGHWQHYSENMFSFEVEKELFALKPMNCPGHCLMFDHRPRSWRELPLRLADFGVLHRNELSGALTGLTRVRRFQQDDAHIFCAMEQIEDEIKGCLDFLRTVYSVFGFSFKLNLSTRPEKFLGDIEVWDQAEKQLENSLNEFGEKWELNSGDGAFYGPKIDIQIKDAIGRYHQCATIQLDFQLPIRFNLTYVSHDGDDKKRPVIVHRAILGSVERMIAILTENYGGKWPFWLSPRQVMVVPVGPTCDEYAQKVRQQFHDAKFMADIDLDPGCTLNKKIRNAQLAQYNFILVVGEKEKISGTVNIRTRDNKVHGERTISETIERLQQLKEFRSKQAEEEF
Description: Ki of borrelidin compounds for TARS. It counts as biochemical. The conditions noted are these: calculated; data not shown.

Experiment [2] concerns the target T1, TARS. Description: GTPase (GTP hydrolysis) assay. It counts as biochemical. Also noted: His6 (N); made in house; host or cells: E. coli Rosetta 2 (DE3)pLysS, plasmid pET28a hctThrRS. The note with it: 10 μM compound.
For the next experiment, the system named is SKOV-3 cells. The experiment can be described thus: HIF-1α stabilization in hypoxia (Western blot). The note with it: for HIF-1α protein stabilization: hypoxia (2% O2), 6 h. It counts as cell-based. The method, then: After treatments, cells were harvested into sample buffer containing: 0.2 M Tris-HCL, 4% SDS, 4% β-mercaptoethanol, 40% glycerol, 4 μM pyronin Y. Extracts were sheared through a 24-gauge syringe. Samples were separated by 10% SDS-PAGE and transferred to nitrocellulose membrane and probed with rabbit polyclonal anti-TARS (1:500; Santa Cruz Biotechnology, Dallas, Tex.) or monoclonal anti-HIF-1α (BD Transduction Laboratories, [BD Biosciences, San Jose, Calif.]) (Lounsbury, Beddow et al. 1994). Secondary antibodies were HRP-goat-anti-mouse and HRP-goat-anti-rabbit (1:5,000; Jackson Laboratories, Bar Harbor, Me.).
In general terms: In western blotting, separated proteins are transferred to a membrane and probed.

Experiment [3] has as its target T1, TARS. The experiment can be described thus: Ap4G formation assay (TLC, [α-32P]-GTP). The class given is biochemical. Also noted: His6 (N); made in house; host or cells: E. coli Rosetta 2 (DE3)pLysS, plasmid pET28a hctThrRS.
Experiment [4] deals with T1, TARS. The experiment can be described thus: Ap4A formation assay (TLC, [α-32P]-ATP). It counts as biochemical. Also noted: His6 (N); made in house; host or cells: E. coli Rosetta 2 (DE3)pLysS, plasmid pET28a hctThrRS.
Another experiment has as its system HUVECs. Description: Quantitative RT-PCR of TARS mRNA. It counts as cell-based, human. The note with it: HUVECs exposed to 50 ng/ml. The method, then:
Total RNA was extracted from cells using the RNeasy column protocol and cDNA was generated using an Omniscript reverse transcriptase assay according to the manufacturer's instructions (Qiagen, Frederick, Md.). Primers and probes for TARS and β2-microglobulin were Assays-on-Demand (Applied Biosystems, [Life Technologies, Carlsbad, Calif.]). RT-qPCR was performed using an ABI prism 7700 Sequence Detection System (Applied Biosystems). The relative quantity of mRNA level was determined using the comparative CT (ΔΔCT) method using β2-microglobulin to normalize mRNA level (Cassavaugh, Hale et al. 2011).

For experiment [5], the system named is chorioallantoic membrane (CAM) of chicken embryos. The experiment can be described thus: Chick chorioallantoic membrane (CAM) assay. The conditions noted are these: for CAM vessel formation / vascularity, effect of applied synthetase: purified protein applied daily to gelfoam sponge, 72 h. The class given is in vivo. The protocol:
Chick Chorioallantoic Membrane Assay—
Fertilized chicken eggs (Sunrise Farms, Catskill, N.Y.) day 1-2 post-laying were incubated in a humidified incubator at 37° C. for 72 h. Cleaned eggs were cracked and plated in a sterile 10 cm^2 tissue culture-treated dish and incubated at 37° C. for another 7 days. On developmental day 10, 1 mm^3 sterile gelatin sponge pieces (Surgifoam®; Johnson & Johnson Wound Management, Somerville, N.J.) were placed within the outer one-third of the membrane between large vessels. […] All compounds were applied in 10 μl to the CAM every 24 h for 72 h. Images were taken using a Leica MZ6 stereomicroscope every 24 h. Compounds were scored according to a modified version of Intensity Scoring as previously described (Ribatti, Nico et al. 2006). Briefly, each experimental condition was given a blinded score from 0-5 based on the change in the extent of vessel convergence and formation in proximity to the sponge from day 0 to day 3. Total score is averaged individual experimental condition scores from at least 15 replicates.
Fertilized chicken embryos were cultured ex-ova and, starting at developmental day 10, agents were applied daily to gelfoam sponges on the CAM. Images were recorded daily over 72 h and scored blindly according to a modified version Intensity Scoring as previously described (Ribatti, Nico et al. 2006). Additional details regarding methods are provided in the Methods and Materials section of Example 1.

A further experiment deals with tRNAThr. The experiment can be described thus: Steady state aminoacylation assay. The class given is biochemical, E. coli or human. The conditions noted are these: purified recombinant protein. The protocol:
Steady State Aminoacylation Assay—
The aminoacylation activities of the TARS constructs were determined using modifications to established procedures (Francklyn et al 2008). Briefly, reaction mixtures consisted of 20 mM Tris-HCl pH 8.0, 100 mM KCl, 10 mM MgCl2, 1 mM dithiothreitol, 2 mM ATP, 2.5 U pyrophosphatase (Roche), 80 μM threonine, 20 μM [14C]-threonine, and 5 μM of E. coli or human tRNAThr. Reactions were initiated with the addition of 0.25-0.75 μM TARS and run at 37° C. Aliquots were taken at varying time points and spotted onto Whatmann 3MM paper filters pre-soaked in 5% trichloroacetic acid (TCA). Upon completion, the filters were washed 3 times in excess TCA, once in 95% ethanol, and dried under a heating lamp. The formation of Thr-tRNAThr was detected by scintillation counter and the activity determined by linear regression of threonyl-tRNAThr formed per active site per unit time.

Entries after “also recorded” stand apart in the source; their conditions may differ.

With `C[C@@H]1C[C@H](C)C[C@H](C)[C@@H](O)CC(=O)O[C@H]([C@@H]2CCC[C@H]2C(=O)O)C/C=C/C=C(/C#N)[C@H](O)[C@@H](C)C1` [borrelidin], the inhibition constant (Ki) (usually a dissociation constant, usually derived from enzyme kinetics or from competition with a known ligand) at TARS [1] is 4.6 nM. Further, on TARS [2], the “change of TARS GTPase activity upon treatment with inhibitor” value is listed as “no observable change”. The HIF-1α transcription result in the experiment with SKOV-3 cells (SK-OV3 cells responding to hypoxia) is given as “no change in HIF-1α transcription”. For the same molecule, the HIF-1α protein stabilization entry in the experiment on SKOV-3 cells is “reduce HIF-1α stabilization”; with SKOV-3 cells (listed as BC144), “diminished the levels of HIF-1α protein stabilization”. Besides, the “Ap4G synthesis, inhibition (qualitative)” value on TARS [3] (human TARS, 10 μM compound) is “at least partially inhibited”. In addition, the “Ap4A synthesis, inhibition (qualitative)” value on TARS [4] (human TARS, 10 μM compound) is “at least partially inhibited”. Besides, the “decrease in Ap4A formation activity” value at TARS [4] (wildtype TARS, 10 μM compound) came to 59.4%.

TNF-α: the “TARS mRNA level” value in the experiment with HUVECs is “neither VEGF nor TNF-α induced an increase; also recorded: do not induce TARS transcription”.

Regarding VEGF, in the experiment with HUVECs, the “TARS mRNA level” value is recorded as “neither VEGF nor TNF-α induced an increase; also recorded: do not induce TARS transcription”.

B1: L567V TARS: BC194-resistant (borrelidin-resistant) L567V mutant of human TARS (protein, listed as Homo sapiens)
chain: MFEEKASSPSGKMGGEEKPIGAGEEKQKEGGKKKNKEGSGDGGRAELNPWPEYIYTRLEMYNILKAEHDSILAEKAEKDSKPIKVTLPDGKQVDAESWKTTPYQIACGISQGLADNTVIAKVNNVVWDLDRPLEEDCTLELLKFEDEEAQAVYWHSSAHIMGEAMERVYGGCLCYGPPIENGFYYDMYLEEGGVSSNDFSSLEALCKKIIKEKQAFERLEVKKETLLAMFKYNKFKCRILNEKVNTPTTTVYRCGPLIDLCRGPHVRHTGKIKALKIHKNSSTYWEGKADMETLQRIYGISFPDPKMLKEWEKFQEEAKNRDHRKIGRDQELYFFHELSPGSCFFLPKGAYIYNALIEFIRSEYRKRGFQEVVTPNIFNSRLWMTSGHWQHYSENMFSFEVEKELFALKPMNCPGHCLMFDHRPRSWRELPLRLADFGVLHRNELSGALTGLTRVRRFQQDDAHIFCAMEQIEDEIKGCLDFLRTVYSVFGFSFKLNLSTRPEKFLGDIEVWDQAEKQLENSLNEFGEKWELNSGDGAFYGPKIDIQIKDAIGRYHQCATIQLDFQVPIRFNLTYVSHDGDDKKRPVIVHRAILGSVERMIAILTENYGGKWPFWLSPRQVMVVPVGPTCDEYAQKVRQQFHDAKFMADIDLDPGCTLNKKIRNAQLAQYNFILVVGEKEKISGTVNIRTRDNKVHGERTISETIERLQQLKEFRSKQAEEEF
Turning to B1, the “sensitivity of synthetase-induced CAM angiogenesis to BC194” value in experiment [5] (protein plus BC194 applied to CAM) was “not inhibited”. For the same molecule, the “CAM vessel formation / vascularity, effect of applied synthetase” value in experiment [5] is recorded as “stimulated vessel formation”. Also, in the experiment on tRNAThr, the aminoacylation activity result is “not compromised”.

B2: R442A TARS: aminoacylation-deficient human TARS mutant; essential catalytic arginine 442 exchanged for alanine (protein, listed as Homo sapiens)
chain: MFEEKASSPSGKMGGEEKPIGAGEEKQKEGGKKKNKEGSGDGGRAELNPWPEYIYTRLEMYNILKAEHDSILAEKAEKDSKPIKVTLPDGKQVDAESWKTTPYQIACGISQGLADNTVIAKVNNVVWDLDRPLEEDCTLELLKFEDEEAQAVYWHSSAHIMGEAMERVYGGCLCYGPPIENGFYYDMYLEEGGVSSNDFSSLEALCKKIIKEKQAFERLEVKKETLLAMFKYNKFKCRILNEKVNTPTTTVYRCGPLIDLCRGPHVRHTGKIKALKIHKNSSTYWEGKADMETLQRIYGISFPDPKMLKEWEKFQEEAKNRDHRKIGRDQELYFFHELSPGSCFFLPKGAYIYNALIEFIRSEYRKRGFQEVVTPNIFNSRLWMTSGHWQHYSENMFSFEVEKELFALKPMNCPGHCLMFDHRPRSWRELPLRLADFGVLHANELSGALTGLTRVRRFQQDDAHIFCAMEQIEDEIKGCLDFLRTVYSVFGFSFKLNLSTRPEKFLGDIEVWDQAEKQLENSLNEFGEKWELNSGDGAFYGPKIDIQIKDAIGRYHQCATIQLDFQLPIRFNLTYVSHDGDDKKRPVIVHRAILGSVERMIAILTENYGGKWPFWLSPRQVMVVPVGPTCDEYAQKVRQQFHDAKFMADIDLDPGCTLNKKIRNAQLAQYNFILVVGEKEKISGTVNIRTRDNKVHGERTISETIERLQQLKEFRSKQAEEEF
On to B2, for which the “CAM vessel formation / vascularity, effect of applied synthetase” value in experiment [5] is reported as “virtually indistinguishable from wild type”. The Ap4G formation rate entry with TARS [3] (2 mM ATP, 2 mM threonine, 2 mM GTP) was “not catalyzed; also recorded: blocked”. Besides, the aminoacylation activity entry in the experiment on tRNAThr is reported as “essentially no aminoacylation activity; also recorded: virtually negligible aminoacylation function”. In the experiment with TARS [4] (5 μM enzyme, 2 mM threonine, 2 mM ATP), the Ap4A production rate entry is “no appreciable activity; also recorded: blocked”.
